US11944604B1, “Nanoformulation of spriooxindole and methods for treating hepatocellular carcinoma” (KING SAUD UNIVERSITY, priority 2023, dated 2024)
Like-named read-outs stand apart in the source and are kept apart here.

Key:
[1] = tested on: CCl4-induced liver cancer; experiment: CCl4-induced liver cancer model: serum liver/kidney markers and H&E histopathology; format: in vivo, mice; parameters: GPT (ALT) / Creatinine / GOT (AST): unit not given here; conditions: for Creatinine / GOT (AST) / GPT (ALT): serum, mean ± SD; for mitotic activity of liver cells (H&E): CCl4-treated mice
Description: (§1) An in vivo study was carried out in Male Balb/c mice, each weighing 15-25 g. All mice were purchased from Medical Experimental Research Center (MERC), Mansoura University, Egypt. Mice were acclimatized for one week in the new animal care facility, at the Zoology Department, Mansoura University, Egypt, under specific pathogen-free (SPF) conditions, and provided with conventional food and drinking water before the study. All animal experiments were carried out following the guidelines of the faculty of Science, Mansoura University, Egypt.
(§2) Twenty five mice were treated with carbon tetrachloride (CCl4, from LOBA Chemie Pvt Ltd, Mumbai, India, 1:5 in corn oil) twice weekly via IP injection for 24 weeks. After that period of time, mice were distributed evenly into 5 groups of 5 mice. Group 1 was treated with the solvent 10% DMSO; group 2 was treated with a low dose of compound 4d (50 mg/kg/daily) for 14 days; group 3 was treated with a high dose of compound 4d (200 mg/kg) for 6 hours; group 4 was treated with a high dose of compound 4d (200 mg/kg) for 24 hours; and group 5 was treated with a high dose of compound 4d (200 mg/kg) for 48 hours.
At the end of each treatment, all mice were sacrificed, and blood and liver were collected for evaluation. The liver samples were washed in ice cold 1× phosphate buffered saline (PBS), and fixed in 10% buffered formalin till examination.
(§3) The blood was centrifuged to collect serum or plasma for biochemical analysis. The blood chemistry was evaluated to detect the level of serum alanine aminotransferase (ALT), serum aspartate aminotransferase (liver function test), and serum creatinine (kidney function test). Complete blood count analysis was carried out to detect the effect of compound 4d treatment on blood platelet count, because it has been reported that p53-MDM2 inhibitors cause high grade thrombocytopenia (i.e., decreased numbers of platelets).
(§4) The formalin-fixed liver specimens were embedded in paraffin, and sections were taken and prepared for hematoxylin and Eosin (H&E) staining. The slides were examined for hepatic architecture, degenerative changes, inflammatory changes, hepatocytes necrosis, mitosis, dysplastic changes and malignant transformation. 4 μm thick sections were prepared on coated slides.
An in vivo model was carried out to test the efficacy of compound 4d in treatment of liver cancer by applying two regimens of compound 4d: a single dose of 200 mg/kg and the treated mice were sacrificed after 6, 24 or 48 hours; or a daily dose of 50 mg/kg for 14 days. Liver cancer was induced chemically by CCl4 (1:5 dilution in corn oil, twice per week). […] The liver architecture was disturbed and there were cirrhotic nodules with bridging fibrosis (FIG. 3A).

HCT-116 = experiment: Anticancer potency and ligand efficiency scores, HCT-116; format: cell-based; conditions: Homo sapiens
Excerpt: (§5) LE is used to measure the efficiency of compounds and determine binding affinity (in terms of binding energy or pIC50) in relation to the number of heavy atoms in a molecule. This provides a way to compare the affinity of molecules corrected for their size.
(§6) LE represents the ratio of the affinity of a ligand divided by the number of heavy (non-hydrogen) atoms in the molecule (LE=ΔG/[number of heavy atoms. LE can be calculated according to the following equation: LE=(plC50×1.37)/NHA • where: • IC50=half-maximal inhibitory concentration (in term of molar concentration). • NHA=non-hydrogen atom. The recommended LE value for lead-likeness should be in the range of 0.3. The acceptable LE value for drug-likeness should be higher than 0.3.
(§7) LLE can be calculated as follows: LLE=pIC50−C log P

p53 = experiment: Immunohistochemistry of p53 in liver sections of CCl4-treated mice; format: in vivo
Description: as §2
(§8) The sections were de-paraffinized in xylene, then rehydrated. Endogenous tissue peroxidase was blocked by incubating the slides for 5 minutes in 0.3% hydrogen peroxide. Antigen retrieval was done by heating the sections in citrate buffer, at pH 6.0, in a microwave. Then, the sections were incubated with monoclonal mouse p53 (clone DO-7, Dako, USA), rabbit polyclonal caspase 3 antibody (CPP32) Ab-4 (ThermoScientific), or with monoclonal mouse Ki-67 antigen (clone MIB-1, Dako, USA).
(§9) The slides were counterstained with hematoxylin and then dehydrated in alcohol and cleared xylene. The immunohistochemical and pathological changes were examined by light microscopy (binocular, Olympus). Images were taken using a digital camera (Canon, 5 mega pixels, at 3.2× optical zoom). […]

HepG2 = experiment: Anticancer potency and ligand efficiency scores, HepG2; format: cell-based; conditions: Homo sapiens
Excerpt: as §5, §6, §7

caspase 3 = experiment: Immunohistochemistry of caspase 3 in liver sections of CCl4-treated mice; format: in vivo; conditions: low dose daily for 14 days or high dose for 48 hours
Description: as §2, §8, §9

[2] = tested on: colon, liver and prostate cancer; conditions: anticancer activity against colon; cited from earlier work
colon cancer cells = conditions: cited from earlier work
Ki-67 = experiment: Immunohistochemistry of Ki-67 in hepatocytes of CCl4-treated mice; format: in vivo; conditions: low (daily dose for 14 days) or high dose (single dose)
Description: as §2
The sections were de-paraffinized in xylene, then rehydrated. Endogenous tissue peroxidase was blocked by incubating the slides for 5 minutes in 0.3% hydrogen peroxide. Antigen retrieval was done by heating the sections in citrate buffer, at pH 6.0, in a microwave. […]
The statistical analysis was done using the software SPSS 19 for Microsoft Windows (SPSS Inc, Chicago, Illinois). A quantitative analysis of the number of hepatocytes with positive nuclear Ki-67 staining were tested using a one-way analysis of variance (ANOVA), with Duncan's multiple comparisons of the means to compare difference between means.
The level of proliferative Ki-67 marker was evaluated using immunohistochemistry. […]

Male Balb/c mice = experiment: Safety / tolerated dose study of compound 4d in healthy mice (blood count, blood chemistry, histopathology); format: in vivo; conditions: for Creatinine / GOT / GPT / Hb / Leukocytes / Platelets: mean ± SD
Description: as §1
The lethal dose of compound 4d was evaluated according to standard Dose-Probing Tests. Mice were divided into groups of three for evaluating the LD50. Each group received either a different concentration of compound 4d (ranging from 10 ng/Kg to 200 mg/Kg), in corn oil, or the solvent 10% DMSO in corn oil, by intraperitoneal (IP) injection.
The weight and physical symptoms of the mice were monitored for 14 days. After that, all groups were sacrificed, and the liver, kidney, heart, and spleen were collected for histological evaluation of the toxicity of compound 4d. Blood was collected from each mouse for evaluation of the effect of compound 4d on liver and kidney function.
as §3, §4
In order to evaluate the tolerated dose of compound 4d, mice were intraperitoneally injected with different doses, and physical symptoms were evaluated daily for 14 days. The maximum dose used was 200 mg/kg, because of the solubility limitation in DMSO. DMSO was adjusted to the tolerated dose 10% in corn oil.

[3] = Lipophilicity (log K as surrogate for log P); format: physicochemical
Description: An LLE value≥3 for a lead compound is acceptable, and for a drug candidate LLE value ≥5 is recommended. To get more accurate results, log P was calculated practically, and Log K was measured as indicator and surrogate for log p.

PC-3 = experiment: Anticancer potency and ligand efficiency scores, PC-3; format: cell-based; conditions: Homo sapiens
Excerpt: as §5, §6, §7

[4] = healthy mice, IP, 50 mg/kg/14 d
[5] = healthy mice, IP, 200 mg/kg/24 hrs
[6] = healthy mice, IP, 200 mg/kg/48 hrs

SMILES: O=C(/C=C/c1ccc(Cl)cc1Cl)[C@H]1[C@H](c2ccc(Cl)cc2Cl)[C@H]2CSCN2[C@]12C(=O)Nc1ccccc12 [Compound 4d, (3R,6′S,7′R,7a′S)-7′-(2,4-dichlorophenyl)-6′-((E)-3-(2,4-dichlorophenyl)acryloyl)-1′,6′,7′,7a′-tetrahydro-3′H-spiro[indoline-3,5′-pyrrolo[1,2-c]thiazol]-2-one]
- Creatinine ([1]; CCl4 + 50 mg/kg/14 d): 0.4120 ± 0.2
- GOT (AST) ([1]; CCl4 + 50 mg/kg/14 d): 449.20 ± 109.2
- GPT (ALT) ([1]; CCl4 + 50 mg/kg/14 d): 2028.6 ± 168
- Creatinine ([1]; CCl4 + 200 mg/kg/6 hrs): 0.4560 ± 0.1823
- GOT (AST) ([1]; CCl4 + 200 mg/kg/6 hrs): 3419.00 ± 130.5
- GPT (ALT) ([1]; CCl4 + 200 mg/kg/6 hrs): 3430.4 ± 137.48
- Creatinine ([1]; CCl4 + 200 mg/kg/24 hrs): 0.4860 ± 0.17
- GOT (AST) ([1]; CCl4 + 200 mg/kg/24 hrs): 1161.00 ± 108.5
- GPT (ALT) ([1]; CCl4 + 200 mg/kg/24 hrs): 2209.0 ± 132.8
- Creatinine ([1]; CCl4 + 200 mg/kg/48 hrs): 0.4660 ± 0.16
- GOT (AST) ([1]; CCl4 + 200 mg/kg/48 hrs): 208.40 ± 9.32
- GPT (ALT) ([1]; CCl4 + 200 mg/kg/48 hrs): 961.6 ± 15.96
- mitotic activity of liver cells (H&E) ([1]; daily dose of 50 mg/kg for 14 days): no mitotic activity
- mitotic activity of liver cells (H&E) ([1]; single dose of 200 mg/kg, after 6 hours): 1 /10 H.P.F.
- mitotic activity of liver cells (H&E) ([1]; single dose of 200 mg/kg, longer incubation (24 hours)): 1 /10 H.P.F.
- mitotic activity of liver cells (H&E) ([1]; single dose of 200 mg/kg, two days (48 hours)): 2 /10 H.P.F.
- IC50 (HCT-116; read-out: HCT-116 (unnamed value under the cell line head)): 2 µM
- IC50 (HCT-116; read-out: pIC50 (converted)): 2.04 µM
- level of p53 in liver sections (p53; daily dose of 50 mg/kg for 14 days, versus mice only treated with CCl4): higher levels of detected p53
- activation of p53 in liver sections (p53; single dose of 200 mg/kg for 6, 24 or 48 hours): time-dependent activation of p53
- IC50 (HepG2; read-out: HepG2 (unnamed value under the cell line head)): 0.85 µM
- IC50 (HepG2; read-out: IC50 (converted)): 0.851 µM
- level of caspase 3 in liver sections (caspase 3): induced the activation of caspase 3
- selectivity index [2]: greater than 2
- apoptosis (Bcl-2 inhibition, Bax activation) (colon cancer cells): induction of apoptosis
- colony formation and wound healing (colon cancer cells; treated colon cancer cells): inhibited colony formation, and wound healing
- p21 gene expression (colon cancer cells; treated colon cancer cells): overexpression of cell cycle inhibitor p21 gene
- p53 activation (colon cancer cells; treated colon cancer cells): activation of p53
- number of Ki-67 nuclear stained hepatocytes (Ki-67): significantly increased
- change in the behavior, feeding or drinking of the mice (Male Balb/c mice; IP, doses up to 200 mg/kg, observed daily for 14 days): did not cause any change
- Creatinine (Male Balb/c mice; [4]): 0.49 ± 0.21
- GOT (Male Balb/c mice; [4]): 281.0 ± 231.9
- GPT (Male Balb/c mice; [4]): 486.6 ± 339.9
- Hb (Male Balb/c mice; [4]): 10.16 ± 1.1
- Leukocytes (Male Balb/c mice; [4]): 12.5 ± 6.9
- Platelets (Male Balb/c mice; [4]): 433.0 ± 304.6
- Creatinine (Male Balb/c mice; [5]): 0.67 ± 0.24
- GOT (Male Balb/c mice; [5]): 129.6 ± 56.5
- GPT (Male Balb/c mice; [5]): 498.0 ± 228.8
- Hb (Male Balb/c mice; [5]): 10.1 ± 1.43
- Leukocytes (Male Balb/c mice; [5]): 10.6 ± 6.9
- Platelets (Male Balb/c mice; [5]): 519 ± 302.9
- Creatinine (Male Balb/c mice; [6]): 0.692 ± 0.567
- GOT (Male Balb/c mice; [6]): 145.7 ± 198.9
- GPT (Male Balb/c mice; [6]): 368.0 ± 208.1
- Hb (Male Balb/c mice; [6]): 10.4 ± 1.78
- Leukocytes (Male Balb/c mice; [6]): 13.6 ± 6.4
- Platelets (Male Balb/c mice; [6]): 407.0 ± 281.6
- pathological alteration in kidney, heart or spleen (Male Balb/c mice; healthy mice, histopathology): did not cause any pathological alteration
- platelet count (complete blood count) (Male Balb/c mice; healthy mice, in words): no aberrant or significant change
- liver architecture, hematoxylin and eosin staining (Male Balb/c mice; healthy mice, treatment for 14 days): normal liver architecture without any degenerative changes
- log K [3]: 1.19
- IC50 (PC-3; read-out: PC-3 (unnamed value under the cell line head)): 1.8 µM
- IC50 (PC-3; read-out: pIC50 (converted)): 1.82 µM
